Values quoted from earlier work as cited in patent US20070020249A1, “COMPOSITIONS FOR PREVENTION AND TREATEMENT OF SYMPTOMS OF GASTROINTESTINAL DISTRESS” (priority 2005, published 2007).

Settings: humans; Auburn University study

oxygen-coordinated chromium polynicotinate
reduction of LDL cholesterol, average: 14%
